Molecules are shown by their SMILES.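 Growth conditions: 96-well plates. Treatment: test compound, 48 hours, 5 concentrations. Analysis: linear interpolation between bracketing concentrations; unreached endpoints set to highest concentration. GI50 is the concentration that inhibits growth by half. TGI: total growth inhibition.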 A value given as a limit tells only on which side of the number the result lay.

Test systems include SNB-19 CNS; DMS 273 small cell lung; NCI/ADR-RES ovarian; NCI-H522 lung; UACC-257 melanoma; HL-60(TB) leukemia; SNB-78 CNS; SK-OV-3 ovarian; DLD-1 colon; SR leukemia; MDA-MB-231 breast.
Holding throughout (experiment): NCI tumour cell line growth inhibition, 48 h

As to `C(=C/c1nc2ccccc2o1)/c1ccc2c(c1)OCO2`, the TGI with SNB-19 CNS is 38.6 µM; in the experiment on DMS 273 small cell lung, above 37.5 µM; with NCI/ADR-RES ovarian, 39.5 µM; with NCI-H522 lung, 51.3 µM; in the experiment with UACC-257 melanoma, above 100 µM; with HL-60(TB) leukemia, above 96.5 µM. Further, the TGI in the experiment with SNB-78 CNS was 90.6 µM; in the experiment on SK-OV-3 ovarian, 53.1 µM; with DLD-1 colon, above 100 µM.

For the compound `CC1OC(=O)C(C(C)C)NC(=O)C(C(C)C)OC(=O)C(C(C)C)NC(=O)C(C)OC(=O)C(C(C)C)NC(=O)C(C(C)C)OC(=O)C(C(C)C)NC(=O)C(C)OC(=O)C(C(C)C)NC(=O)C(C(C)C)OC(=O)C(C(C)C)NC1=O` (configuration not stated), the GI50 in the experiment with SNB-19 CNS is below 0.0001 µM; in the experiment on NCI/ADR-RES ovarian it was 0.0129 µM; in the experiment with NCI-H522 lung, below 0.0001 µM; with HL-60(TB) leukemia, below 0.0001 µM. Besides, the TGI was 1.25 µM in the experiment with SNB-19 CNS; 0.0141 µM in the experiment on DMS 273 small cell lung; 0.117 µM with NCI/ADR-RES ovarian; below 0.0001 µM in the experiment with NCI-H522 lung; 0.145 µM in the experiment with UACC-257 melanoma; 4.46 µM in the experiment with SNB-78 CNS. Moreover, the figures for the TGI in the experiment with SK-OV-3 ovarian and with DLD-1 colon were 0.225 µM and 2.05 µM, respectively.

`CCN(CC)CCO[Si](OCCN(CC)CC)(OCCN(CC)CC)OCCN(CC)CC`: the TGI in the experiment with SR leukemia, with SNB-19 CNS, in the experiment with DMS 273 small cell lung, in the experiment with UACC-257 melanoma, in the experiment on SK-OV-3 ovarian and with DLD-1 colon was above 100 µM in each case.

In the case of `S=c1nc[nH]c2c1ncn2C1CCCO1` (configuration not stated), the TGI with SNB-19 CNS, in the experiment on DMS 273 small cell lung, in the experiment on NCI-H522 lung, with HL-60(TB) leukemia, in the experiment on SK-OV-3 ovarian and in the experiment with DLD-1 colon was above 100 µM throughout.

On to `CCOC(=O)C(C)N1C(=O)c2ccccc2S1(=O)=O` (configuration not stated), for which the TGI in the experiment on SNB-19 CNS, in the experiment on DMS 273 small cell lung, in the experiment with NCI/ADR-RES ovarian, with NCI-H522 lung, with UACC-257 melanoma and in the experiment on HL-60(TB) leukemia was above 100 µM each time. The TGI in the experiment with SNB-78 CNS, in the experiment on SK-OV-3 ovarian and in the experiment on DLD-1 colon was above 100 µM each time. For the same compound, the GI50 in the experiment on SNB-78 CNS was above 100 µM.

Turning to `CCOC(=O)C1=C(C)N(C2OC(COC(=O)c3ccccc3)C(OC(=O)c3ccccc3)C2OC(=O)c2ccccc2)C(=S)NC1c1ccccc1` (configuration not stated), the TGI was 73.2 µM with SR leukemia; above 100 µM in the experiment with SNB-19 CNS; 66.1 µM in the experiment on NCI-H522 lung; above 100 µM with UACC-257 melanoma; 33.9 µM in the experiment with HL-60(TB) leukemia; above 100 µM in the experiment with SNB-78 CNS. For the same compound, the TGI in the experiment on SK-OV-3 ovarian and in the experiment on DLD-1 colon was above 100 µM in each case.

`O=C(CCC1CCCCN1)Nc1ccc2c(c1)C(=O)c1ccc(NC(=O)CCN3CCCCC3)cc1C2=O` (configuration not stated): the TGI in the experiment on SR leukemia is above 100 µM; with DMS 273 small cell lung it was 7.55 µM; in the experiment with UACC-257 melanoma it was 2.94 µM; in the experiment on SNB-78 CNS it was above 100 µM; in the experiment on SK-OV-3 ovarian, 70.1 µM; in the experiment on DLD-1 colon, 6.37 µM.

As to `CCOC(C)OC1CC(n2cc(C)c(=O)[nH]c2=O)OC1CO` (configuration not stated), the TGI in the experiment with SR leukemia, with SNB-19 CNS, with DMS 273 small cell lung, with NCI-H522 lung, in the experiment on UACC-257 melanoma and in the experiment on HL-60(TB) leukemia was above 100 µM throughout. Besides, the TGI in the experiment with SNB-78 CNS, in the experiment with SK-OV-3 ovarian and in the experiment on DLD-1 colon was above 100 µM each time.

For the compound `CN/N=C(\C(=O)Nc1ccc(C)c(C)c1)C(C(=O)OC)c1nc2ccc([N+](=O)[O-])cc2[nH]c1=O` (configuration not stated), the TGI in the experiment on SR leukemia is above 100 µM; with SNB-19 CNS, above 100 µM; with DMS 273 small cell lung it was above 100 µM; in the experiment with NCI-H522 lung it was 70.9 µM; in the experiment with UACC-257 melanoma, above 100 µM; with HL-60(TB) leukemia, above 100 µM. Further, the TGI in the experiment on SNB-78 CNS, in the experiment on SK-OV-3 ovarian and in the experiment on DLD-1 colon was above 100 µM throughout.

In the case of `C[C@H](CCC(=O)NCC(=O)O)[C@H]1CC[C@H]2[C@@H]3[C@H](O)C[C@@H]4C[C@H](O)CC[C@]4(C)[C@H]3CC[C@]12C`, the TGI in the experiment with SR leukemia, in the experiment with SNB-19 CNS, with NCI/ADR-RES ovarian, in the experiment on NCI-H522 lung, in the experiment with MDA-MB-231 breast and in the experiment with UACC-257 melanoma was above 100 µM each time. Besides, the TGI with HL-60(TB) leukemia and with SK-OV-3 ovarian was above 100 µM each time.

As for `O=C1c2cc([N+](=O)[O-])sc2C(=O)c2c([N+](=O)[O-])csc21`, the TGI with SR leukemia stood at 0.173 µM; in the experiment with SNB-19 CNS, 3.02 µM; with NCI/ADR-RES ovarian it was 4.16 µM; in the experiment with NCI-H522 lung, 1.68 µM; with MDA-MB-231 breast, 2.19 µM; in the experiment with UACC-257 melanoma, 1.31 µM. Further, the TGI with HL-60(TB) leukemia was 0.112 µM; with SK-OV-3 ovarian it was 3.09 µM.

Consider `O=C1CC(c2ccccc2)S(=O)c2ccccc2N1` (configuration not stated), for which the TGI in the experiment on SR leukemia, with SNB-19 CNS, in the experiment with NCI/ADR-RES ovarian, in the experiment on NCI-H522 lung, in the experiment on MDA-MB-231 breast and in the experiment with UACC-257 melanoma was above 100 µM throughout. Further, the TGI with HL-60(TB) leukemia and with SK-OV-3 ovarian was above 100 µM in each case.

For the compound `CN1CCN([C@H]2C[C@H]3[C@@H]4CC=C5C[C@@H](O)CC[C@]5(C)[C@H]4CC[C@]3(C)[C@H]2O)CC1`, the TGI is 53.3 µM in the experiment with SR leukemia; above 62 µM in the experiment with SNB-19 CNS; above 100 µM with NCI/ADR-RES ovarian; above 100 µM with NCI-H522 lung; above 64.7 µM in the experiment on MDA-MB-231 breast; above 69.3 µM in the experiment on UACC-257 melanoma. Also, the TGI with HL-60(TB) leukemia was 39.7 µM; in the experiment on SK-OV-3 ovarian, above 100 µM.
